Measurements: patent publication US20230212510A1, “METHODS FOR ORGANOIDS PRODUCTION” (CITY OF HOPE, priority 2020, published 2023)
“Also recorded” adds a separate entry of the source. Read-outs that look alike come from different tables or passages of the source.

Legend:
Format in all cases: cell-based, human
[1] = test system: HMEC organoids in microcontainers; experiment: Interventions to alter organoid contraction kinetics (withdrawing media factors, adding matrix)
[2] = test system: HMEC organoids in microcontainers; experiment: Inhibitor treatment of contractile mammary organoids, contractions counted by time-lapse microscopy; details: for effect on contractions (FIG. 5H legend): 2 μM
Description: Contraction temporal analysis: Organoid contractions were quantified either by hand or by brightness change analysis, as indicated. For brightness change analysis, time-lapse movies were taken, and the time-derivative of the whole-field image brightness was calculated. Local maxima in the time-derivative were interpreted as contractions and spot-checked by eye.
Contractile function implies the presence of contractility-associated structural proteins. […] The association between contractility and ASMA expression was tested with inhibitor experiments. Contractile organoids were treated with either latrunculin B or jasplakinolide, inhibitors of cytoskeleton dynamics that either promote or inhibit actin polymerization, […]. […] Next, organoids were treated with ML-7, an inhibitor of the smooth muscle myosin light-chain kinase that interacts with ASMA.

estrogen receptor = experiment: Attempted induction of estrogen receptor expression, immunofluorescence; details: 25 μM RepSox and 10 μM SB431542 together; drugs maintained, withdrawn, or cells mixed 1:10 with undrugged cells
[3] = test system: HMEC organoids in microcontainers; experiment: Prolactin treatment of organoids, luminal functional differentiation (morphology, Sudan Black)

collagen I: matrix protein added to change the microenvironment
effect on contraction kinetics ([1]; added at 0 to 2 mg/mL): no effect

C/C1=C\[C@H](C)C[C@H](C)OC(=O)C[C@H](c2ccc(O)cc2)NC(=O)[C@@H](Cc2c(Br)[nH]c3ccccc23)N(C)C(=O)[C@H](C)NC(=O)[C@@H](C)C1 [jasplakinolide, Jasplakinolide]
effect on contractions (FIG. 5H legend) [2]: prevented contractions

C/C1=C/C(=O)O[C@@H]2C[C@@H](CC[C@H](C)/C=C\CC1)O[C@@](O)([C@@H]1CSC(=O)N1)C2 [latrunculin B, Latrunculin B]
effect on contractions (FIG. 5H legend) [2]: prevented contractions

Cc1cccc(-c2[nH]ncc2-c2ccc3ncccc3n2)n1 [RepSox]
estrogen receptor expression by immunofluorescence (estrogen receptor): not detected

NC(=O)c1ccc(-c2nc(-c3ccc4c(c3)OCO4)c(-c3ccccn3)[nH]2)cc1 [SB431542]
estrogen receptor expression by immunofluorescence (estrogen receptor): not detected

CC[C@H](C)[C@@H]1NC(=O)[C@H](Cc2ccc(O)cc2)NC(=O)[C@@H](N)CSSC[C@@H](C(=O)N2CCC[C@H]2C(=O)N[C@@H](CC(C)C)C(=O)NCC(N)=O)NC(=O)[C@H](CC(N)=O)NC(=O)[C@H](CCC(N)=O)NC1=O [oxytocin]
effect on contraction kinetics ([1]; withdrawn from the media): no effect

CC(C)NCC(O)c1ccc(O)c(O)c1 (stereo not drawn) [isoproterenol]
effect on contraction kinetics ([1]; withdrawn from the media): no effect

cholera toxin
effect on contraction kinetics [1]: no effect

O=S(=O)(c1cccc2c(I)cccc12)N1CCCNCC1 [ML-7]
inhibition of contractions ([2]; 2 μM ML-7, FIG. 5I): Partial inhibition | effect on contractions (FIG. 5I legend) ([2]; n=59 organoids): prevented contractions

B1: prolactin: hormone treatment tested for evidence of lactation (protein, UniProt P01236 29-227, looked up)
Prolactin: LPICPGGAARCQVTLRDLFDRAVVLSHYIHNLSSEMFSEFDKRYTHGRGFITKAINSCHTSSLATPEDKEQAQQMNQKDFLSLIVSILRSWNEPLYHLVTEVRGMQEAPEAILSKAVEIEEQTKRLLEGMELIVSQVHPETKENEIYPVWSGLPSLQMADEESRLSAYYNLLHCLRRDSHKIDNYLKLLKCRIIHNNNC
organoid morphology with prolactin treatment ([3]; presence or absence of prolactin, FIG. 6A): no obvious differences; also recorded: no morphological changes | sudanophilia (Sudan Black, marker of lipophilic secretions) ([3]; prolactin treatment, FIG. 6B): only evident in a single organoid
